Source: patent US12622910B2, “Inhibitors of Bruton's tyrosine kinase and methods of their use” (Janssen Pharmaceutica NV, priority 2021, dated 2026)

Experiment: Phase 1 first-in-human study, safety (TEAEs)
Type: in vivo
Source text: Study Participants—Volunteers aged 18-58 years, with a body mass index (BMI) of 18-30 kg/m^2, body weight ≥50 kg, and who were considered healthy based on medical history, physical examination, clinical laboratory evaluation, and 12-lead electrocardiogram (ECG) were enrolled in this study. Females were required to be surgically sterile or postmenopausal. Key exclusion criteria were history of, or current, clinically significant medical illness and history of malignancy within 5 years.
Study Design—This phase 1, randomized, double-blind, placebo-controlled, single-center study (NCT03607513; EudraCT 2018-000428-32) was conducted between July 2018 and August 2019 at the Janssen Clinical Pharmacology Unit in Merksem, Belgium.The study comprised two distinct parts; Part 1 examined SAD of compound of Formula (III) and Part 2 assessed MAD of compound of Formula (III).
Safety, tolerability, PK, and BTKO were assessed for six doses of compound of Formula (III) oral solution (4, 12, 36, 100, 200, 400 mg) in participants under fasted conditions. The SAD part comprised 10 cohorts of 8 participants each (FIG. 1). In each cohort receiving compound of Formula (III) oral solution (Cohorts 1-9), 6 participants were randomized to receive compound of Formula (III) and 2 to receive placebo. All participants in Cohort 10 received compound of Formula (III) as an oral capsule. All 10 cohorts included 2 sentinel participants who were dosed ˜24 hours prior to the rest of the cohort. In cohorts receiving compound of Formula (III) oral solution, 1 sentinel participant received compound of Formula (III) and the other received placebo.
Six male escalating dose cohorts received a single oral dose of 4, 12, 36, 100, 200, 400 mg compound of Formula (III) or placebo solution under fasted conditions. Gender effects were assessed in 2 female cohorts whose participants received either a 36 or 100 mg dose of compound of Formula (III) or placebo as an oral solution under fasted conditions. Food effects were evaluated in a male cohort receiving compound of Formula (III) 100 mg or placebo as an oral solution after a high-fat breakfast.
Safety, tolerability, and PK of a solid dose formulation of compound of Formula (III) were assessed in an additional male cohort (Cohort 10) that received 3×35 mg (105 mg) of compound of Formula (III) in the fasted state. Since all the participants received the same dose of compound of Formula (III), this cohort was not blinded.
Safety, tolerability, PK, and BTKO following multiple compound of Formula (III) doses were evaluated in 3 dose escalation cohorts with a total of 18 participants (males: 9, females: 9) receiving active study drug. In each cohort, 3 males and 3 females were randomized to receive 36 mg once-daily (QD), 100 mg QD, or 200 mg QD compound of Formula (III) oral solution and 3 participants (males: 2; female: 1) to receive placebo. Two male participants in each cohort served as sentinel participants: one received compound of Formula (III) and other received placebo ˜48 hours prior to other participants in the cohort. All safety and tolerability data (through the follow-up visit), PK data (through at least 24 hours after last dose administration), and all available PD data were reviewed from each cohort before a decision was made to dose escalate.
Safety—Safety evaluations were based upon the type, incidence, and severity of treatment-emergent adverse events (TEAEs) reported throughout the study, and concomitant medication reporting, clinical laboratory tests, physical examinations, vital sign measurements, and ECGs assessed at pre-defined time points. The TEAEs and serious TEAEs were coded using the Medical Dictionary for Regulatory Activities (MedDRA Version 21.0) and summarized by system-organ class (SOC) and preferred terms.

C=CC(=O)N[C@H]1CCC[C@H]1NC(=O)c1sc2nccc3c2c1NC(=O)N3c1cnc(CC(C)C)cc1C (atropisomer, axis not shown) [compound of Formula (III), N-((1R,2S)-2-Acrylamidocyclopentyl)-5-(S)-(6-isobutyl-4-methylpyridin-3-yl)-4-oxo-4,5-dihydro-3H-1-thia-3,5,8-triazaacenaphthylene-2-carboxamide]
Nasopharyngitis, n (%) (Part 2, 100 mg): 0 | Nausea, n (%) (Part 2, 100 mg): 0 | Oral dysaesthesia, n (%) (Part 2, 100 mg): 0 | Oropharyngeal pain, n (%) (Part 2, 100 mg): 0 | Paresthesia, n (%) (Part 2, 100 mg): 0 | Patients with ≥1 TEAEs, n (%) (Part 2, 100 mg): 5 (83.3) | Regurgitation, n (%) (Part 2, 100 mg): 0 | Skin irritation, n (%) (Part 2, 100 mg): 0 | Skin reaction, n (%) (Part 2, 100 mg): 0 | Somnolence, n (%) (Part 2, 100 mg): 1 (16.7) | Vertigo, n (%) (Part 2, 100 mg): 0 | Vessel puncture site hematoma, n (%) (Part 2, 100 mg): 1 (16.7) | Vision blurred, n (%) (Part 2, 100 mg): 0 | Abdominal discomfort, n (%) (Part 2, 200 mg): 0 | Abdominal pain, n (%) (Part 2, 200 mg): 1 (16.7) | Abnormal dreams, n (%) (Part 2, 200 mg): 0 | Administration site irritation, n (%) (Part 2, 200 mg): 0 | Back pain, n (%) (Part 2, 200 mg): 0 | Cough, n (%) (Part 2, 200 mg): 0 | Dehydration, n (%) (Part 2, 200 mg): 0 | Diarrhea, n (%) (Part 2, 200 mg): 0 | Dizziness, n (%) (Part 2, 200 mg): 1 (16.7) | Dysgeusia, n (%) (Part 2, 200 mg): 0 | Fatigue, n (%) (Part 2, 200 mg): 1 (16.7) | Flatulence, n (%) (Part 2, 200 mg): 0 | Headache, n (%) (Part 2, 200 mg): 1 (16.7) | Hot flush, n (%) (Part 2, 200 mg): 1 (16.7) | Increased bronchial secretion, n (%) (Part 2, 200 mg): 0 | Injection site hematoma, n (%) (Part 2, 200 mg): 0 | Injection site reaction, n (%) (Part 2, 200 mg): 0 | Lipase increased, n (%) (Part 2, 200 mg): 0 | Myalgia, n (%) (Part 2, 200 mg): 0 | Nasopharyngitis, n (%) (Part 2, 200 mg): 0 | Nausea, n (%) (Part 2, 200 mg): 0 | Oral dysaesthesia, n (%) (Part 2, 200 mg): 0 | Oropharyngeal pain, n (%) (Part 2, 200 mg): 0 | Paresthesia, n (%) (Part 2, 200 mg): 0 | Patients with ≥1 TEAEs, n (%) (Part 2, 200 mg): 5 (83.3) | Regurgitation, n (%) (Part 2, 200 mg): 1 (16.7) | Skin irritation, n (%) (Part 2, 200 mg): 0 | Skin reaction, n (%) (Part 2, 200 mg): 1 (16.7) | Somnolence, n (%) (Part 2, 200 mg): 0 | Vertigo, n (%) (Part 2, 200 mg): 0 | Vessel puncture site hematoma, n (%) (Part 2, 200 mg): 0 | Vision blurred, n (%) (Part 2, 200 mg): 1 (16.7) | participants discontinued due to a TEAE (mild transaminases increased) (Part 2, 200 mg group, after 8 days): 1 | abdominal discomfort, back pain, hot flush, paresthesia, regurgitation, skin reaction: incidence of each (Part 2, all treated [2/18]): 11.1% | administration site irritation, incidence (Part 2, all treated [3/18]): 16.7% | Abdominal discomfort, n (%) (Part 2, total N = 18): 2 (11.1) | Abdominal pain, n (%) (Part 2, total N = 18): 1 (5.6) | Abnormal dreams, n (%) (Part 2, total N = 18): 0 | Administration site irritation, n (%) (Part 2, total N = 18): 3 (16.7) | Back pain, n (%) (Part 2, total N = 18): 1 (16.7) | Cough, n (%) (Part 2, total N = 18): 0 | Dehydration, n (%) (Part 2, total N = 18): 0 | Diarrhea, n (%) (Part 2, total N = 18): 1 (5.6) | Dizziness, n (%) (Part 2, total N = 18): 1 (5.6) | Dysgeusia, n (%) (Part 2, total N = 18): 0 | Fatigue, n (%) (Part 2, total N = 18): 1 (5.6) | Flatulence, n (%) (Part 2, total N = 18): 1 (5.6) | Headache, n (%) (Part 2, total N = 18): 1 (5.6) | Hot flush, n (%) (Part 2, total N = 18): 2 (11.1) | Increased bronchial secretion, n (%) (Part 2, total N = 18): 0 | Injection site hematoma, n (%) (Part 2, total N = 18): 2 (11.1) | Injection site reaction, n (%) (Part 2, total N = 18): 2 (11.1) | Lipase increased, n (%) (Part 2, total N = 18): 0 | Myalgia, n (%) (Part 2, total N = 18): 0 | Nasopharyngitis, n (%) (Part 2, total N = 18): 0 | Nausea, n (%) (Part 2, total N = 18): 0 | Oropharyngeal pain, n (%) (Part 2, total N = 18): 0 | Paresthesia, n (%) (Part 2, total N = 18): 2 (11.1) | Regurgitation, n (%) (Part 2, total N = 18): 2 (11.1) | Skin irritation, n (%) (Part 2, total N = 18): 0 | Skin reaction, n (%) (Part 2, total N = 18): 2 (11.1) | Somnolence, n (%) (Part 2, total N = 18): 1 (5.6) | Vertigo, n (%) (Part 2, total N = 18): 0 | Vessel puncture site hematoma, n (%) (Part 2, total N = 18): 1 (5.6) | Vision blurred, n (%) (Part 2, total N = 18): 1 (5.6) | serious TEAEs (Parts 1 and 2): No serious TEAEs | severity of TEAEs (Parts 1 and 2): mild to moderate
